Measurements published in patent US20230149919A1, “CASSETTE FOR PRESERVATION OF NATURAL AND BIOENGINEERED TISSUES” (TISSUE TESTING TECHNOLOGIES LLC, priority 2021, published 2023).

Tested on: Epiderm construct
Experiment: Viability of constructs with additives in culture medium before and after vitrification
Assay type: cell-based, Human
Conditions: added to culture medium before and after vitrification, αT and QVD together
Procedure: Resazurin Assay: Was used to measure the metabolic activity and has the advantage of being non-toxic so constructs can be assessed before and several times after treatment. Resazurin dye (alamarBlue) was used to assess cell viability by measuring the oxidation/reduction reactions that take place within cells. The dye is added directly to the culture wells and the plates were incubated for 3 hours at 37° C. Upon reduction, the dye changes color and this was measured and quantified using a fluorescent microplate reader at an excitation wavelength of 544 nm and an emission wavelength of 590 nm.
The initial vitrification protocol was one that was developed for use with vein segments and rings. The process uses a 6 step (15-minute incubation) protocol to add the cryoprotectant (CPA) solution into the construct. The insert is then left in a glass scintillation vial in 1.5 mL vitrification solution with 0.3 mL solution inside the insert. The vials are cooled rapidly to −100° C. then slowly cooled to −135° C. where they are stored until rewarming. During rewarming, the samples are warmed slowly to −100° C. then rapidly to room temperature. The vitrification solution is removed using 7 sequential removal steps at 15 minutes each (FIG. 4, original protocol). Several changes were made to this protocol to produce better and sustainable viability for the Epiderm construct.
A series of changes were made to how the vitrification solution was loaded and unloaded from the construct. These changes included shorter incubation steps (5 minutes instead of 15), using a lower concentration of cryoprotectant to load the full-strength vitrification solution into the construct and also a more mechanical change that involved dilution of the full strength vitrification solution to half its concentration by a simple dilution step as opposed to removal from one solution to the next. This shortened the amount of time that the construct was exposed to the full-strength vitrification solution reducing potential cytotoxicity caused by exposure to the vitrification solution (modified protocol).
The arrived at protocol starts with an overnight incubation with αT and QVD. The next day, the constructs are vitrified using the 6-step addition protocol, 5 minutes each step, to add the cryoprotectant (CPA) solution into the construct. The insert is then left in the final vitrification solution with 0.3 mL solution inside the insert. The vials are cooled rapidly to −100° C. then slowly cooled to −135° C. where they are stored until rewarming. During rewarming, the samples are warmed slowly to −100° C. then rapidly to room temperature. The vitrification solution is removed using 7 sequential removal steps at 5 minutes each. […]

Row | Compound | Effect of additive on construct viability | Effect of additive on construct viability (listed as QVD) | Effect of additive on construct viability (listed as αT)
1 | CC(C)[C@H](NC(=O)c1ccc2ccccc2n1)C(=O)N[C@@H](CC(=O)O)C(=O)COc1c(F)cccc1F [Q-VD-OPH, quinoline-Val-Asp-difluorophenoxymethyl ketone] | improved viability | significant improvement | 
2 | Cc1c(C)c2c(c(C)c1O)CC[C@@](C)(CCC[C@H](C)CCC[C@H](C)CCCC(C)C)O2 [α-tocopherol] | improved viability |  | significant improvement
